Patent publication US12741974B2, “Compounds constituting C20-modified salinomycin derivatives, a method for obtaining the same, a composition containing the same, a use of said compounds and a method for obtaining an intermediate product” (FILECLO SP. Z O.O., priority 2020, dated 2021)

How the values were obtained:
Format in all cases: cell-based
B16-F0 (murine melanoma) = test: In vitro cytotoxicity test, SRB assay, 72 h incubation with compound; settings: for IC50: B16-F0 murine melanoma, SRB, 72 h; for SI B16-F0: selectivity coefficient, BALB/3T3 versus B16-F0
Procedure: (§1) In vitro cytotoxicity tests were performed according to the procedure described below. […] The solvent for further dilutions was a culture medium.
(§2) The experiments were repeated at least 3 times.

Hs294T (human melanoma) = test: as above; settings: for IC50: Hs294T human melanoma, SRB, 72 h; for SI Hs294T: selectivity coefficient, BALB/3T3 versus Hs294T
Procedure: as §1, §2

[1] = tested on: LoVo (drug-sensitive human colon cancer); test: as above; settings: for IC50: LoVo drug-sensitive human colon cancer, SRB, 72 h; for SI LoVo: selectivity coefficient, BALB/3T3 versus LoVo
Procedure: as §1, §2

[2] = tested on: LoVo/DX (drug-resistant human colon cancer); test: as above; settings: for IC50: LoVo/DX drug-resistant human colon cancer, SRB, 72 h; for RI: drug resistance coefficient, LoVo/DX versus LoVo, 4320 min; for SI LoVo/DX: selectivity coefficient, BALB/3T3 versus LoVo/DX
Procedure: as §1, §2

[3] = tested on: MCF-7 (human breast cancer); test: as above; settings: for IC50: MCF-7 human breast cancer, SRB, 72 h; for SI MCF-7: selectivity coefficient, BALB/3T3 versus MCF-7
Procedure: as §1, §2

[4] = tested on: MV-4-11 (human biphenotypic leukaemia); test: In vitro cytotoxicity test, MTT assay, 72 h incubation with compound; settings: for IC50: MV-4-11 human biphenotypic leukaemia, MTT, 72 h; for SI MV-4-11: selectivity coefficient, BALB/3T3 versus MV-4-11
Procedure: as §1, §2
After 4 hours of incubation at 37° C., 80 μL of lysis buffer was added to each well.

[5] = In vitro cytotoxicity test on normal cells, SRB assay, 72 h incubation with compound; settings: mouse, balb/3t3 cells, normal murine fibroblasts, read-out: IC50 BALB/3T3
Procedure: Normal murine BALB/3T3 fibroblasts were also used in the tests for determining the selectivity coefficients of the compounds used in the assays.
as §1, §2

| Compound | IC50 (B16-F0 (murine melanoma); Mus musculus, B16F0) | SI B16-F0 (B16-F0 (murine melanoma)) | IC50 (Hs294T (human melanoma); Hs 294T) | SI Hs294T (Hs294T (human melanoma)) | IC50 [1] | SI LoVo [1] | IC50 [2] | RI [2] | SI LoVo/DX [2] | IC50 ([3]; MCF7) | SI MCF-7 [3] | IC50 ([4]; MV4-11) | SI MV-4-11 [4] | CC50 at 72 h [5] | IC50 (B16-F0 (murine melanoma)) | IC50 (Hs294T (human melanoma)) | IC50 [3] | IC50 [4] |
| --- | --- | --- | --- | --- | --- | --- | --- | --- | --- | --- | --- | --- | --- | --- | --- | --- | --- | --- |
| CCCNC(=O)N[C@@H]1C=C[C@]2(O[C@H]([C@@H](CC)C(=O)[C@@H](C)[C@@H](O)[C@H](C)[C@@H]3O[C@@H]([C@@H](CC)C(=O)[O-])CC[C@@H]3C)[C@@H](C)C[C@H]2C)O[C@@]12CC[C@@](C)([C@H]1CC[C@](O)(CC)[C@H](C)O1)O2.[Na+] [(23), propylurea of C20-dehydroxy-C20-aminosalinomycin] | 70 nM | 22.0 | 10 nM | 154.0 | 60 nM | 25.7 | 150 nM | 2.5 | 10.3 | 370 nM | 4.2 | 1.1 nM | 1400.0 | 1540 nM |  |  |  |  |
| CC[C@@H](C(=O)[C@@H](C)[C@@H](O)[C@H](C)[C@@H]1O[C@@H]([C@@H](CC)C(=O)O)CC[C@@H]1C)[C@H]1O[C@]2(C=C[C@@H](N)[C@]3(CC[C@@](C)([C@H]4CC[C@](O)(CC)[C@H](C)O4)O3)O2)[C@H](C)C[C@@H]1C [(3), C20-aminosalinomycin, reference compound] | 9440 nM | 7.0 | 9730 nM | 6.8 | 33100 nM | 2.0 | 20500 nM | 0.6 | 3.2 | 34900 nM | 1.9 | 5920 nM | 11.2 | 66400 nM |  |  |  |  |
| CC[C@@H](C(=O)[C@@H](C)[C@@H](O)[C@H](C)[C@@H]1O[C@@H]([C@@H](CC)C(=O)O)CC[C@@H]1C)[C@H]1O[C@]2(C=C[C@@H](NC(=O)c3ccc(CCl)cc3)[C@]3(CC[C@@](C)([C@H]4CC[C@](O)(CC)[C@H](C)O4)O3)O2)[C@H](C)C[C@@H]1C [(16), C20-dehydroxy-C20-aminosalinomycin N-(4-chloromethyl)benzamide] | 480 nM | 5.2 | 30 nM | 83.3 | 290 nM | 8.6 | 630 nM | 2.2 | 4.0 | 580 nM | 4.3 | 30 nM | 83.3 | 2500 nM |  |  |  |  |
| N.N.[Cl][Pt][Cl] [cisplatin, reference compound] |  |  |  |  | 6970 nM |  | 8000 nM | 1.1 |  |  |  |  |  |  | 3840 nM | 4010 nM | 7170 nM | 3400 nM |
| CC[C@@H](C(=O)[C@@H](C)[C@@H](O)[C@H](C)[C@@H]1O[C@@H]([C@@H](CC)C(=O)O)CC[C@@H]1C)[C@H]1O[C@]2(C=C[C@@H](NC(=O)CCCCl)[C@]3(CC[C@@](C)([C@H]4CC[C@](O)(CC)[C@H](C)O4)O3)O2)[C@H](C)C[C@@H]1C [(12), C20-dehydroxy-C20-aminosalinomycin N-4-chlorobutyramide] | 560 nM | 30.5 | 70 nM | 243.9 | 630 nM | 27.1 | 1550 nM | 2.5 | 11.0 | 900 nM | 19.0 | 200 nM | 85.4 | 17100 nM |  |  |  |  |
| CC[C@@H](C(=O)[C@@H](C)[C@@H](O)[C@H](C)[C@@H]1O[C@@H]([C@@H](CC)C(=O)O)CC[C@@H]1C)[C@H]1O[C@]2(C=C[C@@H](NC(=O)CCl)[C@]3(CC[C@@](C)([C@H]4CC[C@](O)(CC)[C@H](C)O4)O3)O2)[C@H](C)C[C@@H]1C [(11), C20-dehydroxy-C20-aminosalinomycin N-chloroacetamide] | 400 nM | 6.5 | 60 nM | 43.2 | 930 nM | 2.8 | 620 nM | 0.7 | 4.2 | 810 nM | 3.2 | 280 nM | 9.2 | 2590 nM |  |  |  |  |
| CC[C@@H](C(=O)[C@@H](C)[C@@H](O)[C@H](C)[C@@H]1O[C@@H]([C@@H](CC)C(=O)O)CC[C@@H]1C)[C@H]1O[C@]2(C=C[C@@H](NC(=O)OC)[C@]3(CC[C@@](C)([C@H]4CC[C@](O)(CC)[C@H](C)O4)O3)O2)[C@H](C)C[C@@H]1C [(18), C20-dehydroxy-C20-aminosalinomycin N-methylcarbamate] | 50 nM | 35.2 | 20 nM | 88.0 | 480 nM | 3.7 | 160 nM | 0.3 | 11.0 | 570 nM | 3.1 | 70 nM | 25.1 | 1760 nM |  |  |  |  |
| CC[C@@H](C(=O)[C@@H](C)[C@@H](O)[C@H](C)[C@@H]1O[C@@H]([C@@H](CC)C(=O)O)CC[C@@H]1C)[C@H]1O[C@]2(C=C[C@@H](NC(=O)COC)[C@]3(CC[C@@](C)([C@H]4CC[C@](O)(CC)[C@H](C)O4)O3)O2)[C@H](C)C[C@@H]1C [(13), C20-dehydroxy-C20-aminosalinomycin N-methoxyacetamide] | 530 nM | 26.4 | 60 nM | 233.5 | 670 nM | 20.9 | 2330 nM | 3.5 | 6.0 | 1310 nM | 10.7 | 270 nM | 51.9 | 14000 nM |  |  |  |  |
| CCOC(=O)N[C@@H]1C=C[C@]2(O[C@H]([C@@H](CC)C(=O)[C@@H](C)[C@@H](O)[C@H](C)[C@@H]3O[C@@H]([C@@H](CC)C(=O)O)CC[C@@H]3C)[C@@H](C)C[C@H]2C)O[C@@]12CC[C@@](C)([C@H]1CC[C@](O)(CC)[C@H](C)O1)O2 [(19), C20-dehydroxy-C20-aminosalinomycin N-ethylcarbamate] | 30 nM | 32.3 | 10 nM | 97.0 | 160 nM | 6.1 | 43100 nM | 269.4 | 0.02 | 540 nM | 1.8 | 40 nM | 24.3 | 970 nM |  |  |  |  |
| CC[C@@H](C(=O)[C@@H](C)[C@@H](O)[C@H](C)[C@@H]1O[C@@H]([C@@H](CC)C(=O)O)CC[C@@H]1C)[C@H]1O[C@]2(C=C[C@@H](NC(=O)OCC(C)(C)C)[C@]3(CC[C@@](C)([C@H]4CC[C@](O)(CC)[C@H](C)O4)O3)O2)[C@H](C)C[C@@H]1C [(20), C20-dehydroxy-C20-aminosalinomycin N-neopentylcarbamate] | 640 nM | 5.1 | 280 nM | 11.6 | 820 nM | 4.0 | 640 nM | 0.8 | 5.1 | 2380 nM | 1.4 | 360 nM | 9.0 | 3240 nM |  |  |  |  |
| CCCCNC(=O)N[C@@H]1C=C[C@]2(O[C@H]([C@@H](CC)C(=O)[C@@H](C)[C@@H](O)[C@H](C)[C@@H]3O[C@@H]([C@@H](CC)C(=O)[O-])CC[C@@H]3C)[C@@H](C)C[C@H]2C)O[C@@]12CC[C@@](C)([C@H]1CC[C@](O)(CC)[C@H](C)O1)O2.[Na+] [(24), butylurea of C20-dehydroxy-C20-aminosalinomycin] | 50 nM | 16.0 | 40 nM | 20.0 | 70 nM | 11.4 | 110 nM | 1.6 | 7.3 | 400 nM | 2.0 | 1 nM | 800.0 | 800 nM |  |  |  |  |
